Reference: US20180117176A1, “POROUS SILICON MICROPARTICLE-BASED CANCER VACCINES AND METHODS FOR POTENTIATING ANTI-TUMOR IMMUNITY” (The Methodist Hospital, priority 2015, published 2018)
Where a SMILES comes first, the peptide text is derived from it. The star is where a group is joined. Cbz = O=C(OCc1ccccc1)*

Tests used:
Format in all cases: cell-based, mouse
Ifn-α4 and Ifn-β genes = experiment: QPCR analysis of Ifn-α4 and Ifn-β gene expression in BMDCs; conditions: BMDCs pre-treated with chemical inhibitor
Description: FIG. 3A, FIG. 3B, FIG. 3C, and FIG. 3D show PSM-induced IFN-I signaling in DCs. […] Cell culture medium served as the negative control. […] FIG. 3C is a QPCR analysis of mRNA levels of the Ifn-α4 and Ifn-β genes in BMDCs 5 hrs after co-incubation with PSM, free antigen, or PSM/OVA antigen. […] Data are presented as mean±S.D.; *, P <0.05, **, P <0.01 (see also FIG. 9A and FIG. 9B);
FIG. 4A, FIG. 4B, FIG. 4C, FIG. 4D, FIG. 4E, FIG. 4F, FIG. 4G, FIG. 4H, FIG. 4I, and FIG. 4J show TRIF and MAVS mediated PSM induced interferon type I (IFN-I) activation. FIG. 4A, FIG. 4B, FIG. 4C, and FIG. 4D illustrate PSM-induced changes of Ifn-α4 and Ifn-β gene expression in BMDCs infected with lentiviruses carrying shRNAs targeting the indicated genes. FIG. 4E, FIG. 4F, FIG. 4G, and FIG. 4H illustrate PSM-induced changes of Ifn-α4 and Ifn-β gene expression in BMDCs isolated from wild-type or gene knockout mice. […] FIG. 4J is a schematic view of PSM-induced signaling pathway that mediates IFN-I activation. Data are presented as mean±S.D.; *, P <0.05, **, P <0.01; (see also FIG. 10A, FIG. 10B, FIG. 10C, FIG. 10D, FIG. 10E, and FIG. 10F);
FIG. 10A, FIG. 10B, FIG. 10C, FIG. 10D, FIG. 10E, and FIG. 10F show PSM induced activation of IFN-I signaling in DCs. […]
Real-Time PCR. […] The expression of individual genes was calculated by a ΔΔCT method, and normalized to the expression of β-actin. […]

[1] = system: OVA-specific B3Z CD8 T cells; experiment: In vitro antigen presentation assay, IL-2 production by B3Z cells; conditions: DCs treated with inhibitor before co-incubation with soluble OVA
Description: In Vitro Antigen Presentation Assay. The in vitro antigen presentation assay was performed as previously described (Mukai et al., 2011). Briefly, DC2.4 cells or BMDCs isolated from C57BL/6 mice or TAP^−/− mice were seeded in a 96-well flat-bottom culture plates at a density of 2×10^5 cells/well, and cultured for 12 hrs at 37° C. Each well was washed once with PBS, and then the cells were pulsed with soluble OVA, PSM/OVA, OVA-derived MHC class I epitope peptide [OVA257-264; SIINFEKL (SEQ ID NO:1)], or MHC class II epitope peptide [OVA323-339; ISQAVHAAHAEINEAGR (SEQ ID NO:2); Peptide 2.0] for indicated time points, and immediately fixed with 1% paraformaldehyde. The cells were then co-cultured with 2×10^5 B3Z cells or 2×10^5 DOBW cells for 18 hrs at 37° C. The response of stimulated B3Z or DOBW cells was assessed by determining the amount of IL-2 released into the culture medium using a murine IL-2 ELISA KIT (Ebioscience, San Diego, Calif., USA). […]
T-cell response to antigen cross-presentation of PSM-loaded OVA (PSM/OVA) was next assessed in DCs using an in vitro antigen presentation assay. […] It was subsequently determined whether PSM packaging could induce sustained antigen presentation. […]

DCs (DC2.4 cells, BMDCs) = experiment: DC uptake of PSM/FITC-OVA in cell culture
Text: FIG. 1A, FIG. 1B, FIG. 1C, FIG. 1D, FIG. 1E, FIG. 1F, and FIG. 1G show PSM-loaded antigen was efficiently internalized by dendritic cells (DCs) through phagocytosis and macropinocytosis. […] Upper panel, DC2.4 cells; lower panel, bone-marrow-derived dendritic cells (BMDCs). Scale bar, 25 μm. FIG. 1B is a representative transmission electron microscopy (TEM) image showing the vesicular structure around a PSM/OVA particle inside a DC. Upper panel magnification=5,000×; lower panel magnification=50,000×. Upper panel scale bar=4 μm; lower panel bar=0.5 μm. […] The DCs were extensively washed after priming with 5 μg/mL soluble peptide or PSM/peptides, and either immediately co-incubated with B3Z cells (0 hrs), or cultured for 18 to 30 hrs before T-cell co-incubation; Data are presented as mean±S.D.; *, P <0.05, **, P <0.01; (See also FIG. 7A-FIG. 7E);
Confocal Laser Scanning Microscopy. DC2.4 cells or BMDCs were seeded on eight-well chamber slides at a density of 1×10^5 cells/well and cultured for 24 hrs at 37° C. Each well was washed twice with PBS, and the cells were pulsed with FITC-OVA or PSM/FITC-OVA for 20 min. Cells were washed twice with PBS and incubated for an additional 30 min, 1, 3, or 6 hours in culture medium at 37° C. […] The samples were embedded with Prolong® Gold anti-fade reagent with DAPI (Invitrogen) and analyzed by confocal laser scanning microscopy (Olympus IX81). […]

DCs = experiment: Intracellular antigen trafficking by confocal microscopy
Description: FIG. 2A, FIG. 2B, and FIG. 2C show antigen presentation of PSM-loaded OVA. FIG. 2A illustrates subcellular transport of antigens. DCs were incubated with PSM/FITC-OVA for 0.5 hrs, and then washed extensively to remove unbound particles. The cells were cultured for an additional 0.5 hr, 1 hr, 3 hrs, or 6 hrs before fixation, followed by immunostaining with antibodies recognizing specific organelles (EEA1 for early endosome; Rab7 for late endosome; TR for recycling endosome; and KDEL for the ER). Scale bar=25 μm. […] Peptide I (100 ng/mL) served as the positive control. […] BMDCs were incubated with OVA or PSM/OVA for 16 hrs, followed by harvest and labeling with the anti-CD11c antibody identifying DCs and the 25D1.16 antibody recognizing OVA257-264/H-2K^b complex on DC surface. Percentages of 25D1.16-staining positive populations in DCs are shown in red numbers. Data are presented as mean±S.D; *, P <0.05, **, P <0.01 (see also FIG. 8A, FIG. 8B and FIG. 8C);
Confocal Laser Scanning Microscopy. DC2.4 cells or BMDCs were seeded on eight-well chamber slides at a density of 1×10^5 cells/well and cultured for 24 hrs at 37° C. Each well was washed twice with PBS, and the cells were pulsed with FITC-OVA or PSM/FITC-OVA for 20 min. […] The samples were embedded with Prolong® Gold anti-fade reagent with DAPI (Invitrogen) and analyzed by confocal laser scanning microscopy (Olympus IX81).

Molecule	Effect of inhibitor on IFN-I induction by PSM (Ifn-α4 and Ifn-β genes)	Effect of inhibitor pre-treatment on particle internalization (DCs (DC2.4 cells, BMDCs))	also measured
O=C(NCCCNc1nc(Nc2cccc(NC(=O)N3CCCC3)c2)ncc1I)c1cccs1 [BX795]	markedly inhibited IFN-I induction	–	–
CC(C)C[C@@H](C=O)NC(=O)[C@H](CC(C)C)NC(=O)[C@H](CC(C)C)NC(=O)OCc1ccccc1 [MG-132] (Cbz-Leu-Leu-Leu-aldehyde)	–	–	Effect on class I antigen presentation of soluble OVA [1]: completely blocked
N=C(N)NC(=O)c1nc(Cl)c(N)nc1N [amiloride]	–	significantly decreased particle internalization	–
C=C1[C@@H](C)[C@H]2[C@H](Cc3ccccc3)NC(=O)[C@]23[C@H](OC(C)=O)/C=C/[C@@](C)(O)C(=O)[C@@H](C)C/C=C/[C@H]3[C@@H]1O [cytochalasin D]	suppressed IFN-I induction by PSM	significantly decreased particle internalization	–
free FITC-OVA: free FITC-conjugated ovalbumin	–	–	Signal inside DCs at 6 hrs (DCs): very weak signal by 6 hour
